# Assay results published in patent US8901276B2, “Peptide reagents and methods for detection of colon dysplasia” (The Regents of the University of Michigan, priority 2010, dated 2014).
# Where no end group is shown, it is not given here.
# What was measured:
# [1] = test system: CCD-841Con cells; test: Fluorescence microscopy of FITC-labeled AKP peptides; assay type: cell-based, human; conditions: 10 μM, 4° C., 1 hr
# Description: (§1) Preferential binding of the FITC-labeled peptides to the target and non-target cells as mentioned above was further validated via fluorescence microscopy. Cells (˜7.5×10^3) were seeded on cover slips to ˜80% confluence. The cells were then incubated with 10 μM of 5-FITC-labeled peptides and trilysine at 4° C. for 1 hr followed by staining with 1 μg/mL Hoechst dye (Sigma Aldrich, St. Louis, Mo.). The cells were washed 3× with PBS and fixed with 4% paraformaldehyde at RT for 10 min. After fixation, the cells were washed again with PBS (1×) and mounted with ProLong Gold reagent (Invitrogen, Carlsbad, Calif.) and fluorescence images were collected with confocal microscopy (Leica TCS SP5 Microsystems, Bannockburn, Ill.). The specific peptide binding activity of the FITC-labeled AKP-multimer and AKP-monomer peptides was compared.
# [2] = test system: HT29 cells; test: as above; assay type: cell-based, human
# Description: as §1
# [3] = test system: SW480 cells; test: as above; assay type: cell-based, human; conditions: 10 μM, 4° C., 1 hr
# Description: as §1
# [4] = test system: colonic adenomas; test: In vivo NIR imaging of Cy5.5-labeled AKP peptides; design: species or system CPC;Apc mice; conditions: for T/B ratio: 100 μM, 1.5 mL topical, 5 min; for detection of lesions by size: adenomas ˜0.5 to 4 mm
# Description: The binding activity of the synthetic peptides to colonic dysplasia was assessed in vivo in 3 cohorts of CPC;Apc mice: 1) AKP-multimer, n=14 mice with n=33 adenomas, 2) AKP-monomer, n=14 mice with n=27 adenomas, and 3) trilysine core, n=8 mice with n=17 adenomas as a control. For the imaging studies, anesthesia was induced and maintained in the animals with inhaled isoflurane mixed with oxygen via a nose cone at a dose of 4% and 2% at a flow rate of 0.5 liter/min, respectively. Prior to applying the peptides, the colon was prepped using a tap water lavage. The adenomas were viewed endoscopically, and videos were recorded using white light with a small animal endoscope (Karl Storz Veterinary Endoscopy, Goleta, Calif.). The colon was rinsed with water until all mucous and other debris was removed. Adenomas from approximately 0.5-4 mm in diameter that were not covered in debris, including stool and mucous, were included in the study.
# The Cy5.5-labeled peptides were delivered at a concentration of 100 μM in PBS containing 2.5% DMSO (dimethyl sulfoxide) through the instrument channel of the endoscope. During peptide administration, 1.5 mL of peptide was delivered to the distal colon in each mouse. The peptide was allowed to incubate for 5 min after which the colon was cleansed 3× with a tap water to remove the unbound peptide. Prior to imaging, the colon was inspected for residual peptide solution, and when clean, the colon was insufflated with air and imaged with the wide field endoscope which provides excitation at 671 nm. Fluorescence and reflectance videos were collected using Axiovision 4.8.1 software. Fluorescence videos were collected at 100 ms/frame (10 Hz), and transferred to the computer for storage by a firewire connection. A filter wheel was incorporated into the handle of the housing to quickly switch between collection of reflectance and fluorescence images. White light, fluorescence and reflectance images were collected from 1) n=14 mice having n=33 adenomas with AKP-multimer, 2) n=14 mice having n=27 adenomas with AKP-monomer, and 3) n=8 mice having n=17 adenomas with the trilysine (control). The CPC;Apc mice imaged ranged in age from 3 to 6 months. Fluorescence images were exported as videos in zvi format (16 bit digital resolution) using LabView software. Sequentially-collected white light and fluorescence images for each adenoma were analyzed. Separate regions of interest (ROI) were defined around the adenoma and adjacent normal-appearing mucosa on the white light image, and the ROI's were overlayed onto the fluorescence images. The target to-background (T/B) ratio was determined by ratioing the mean intensities from these 2 ROI's.
# [5] = test system: HT29 cells; test: Kinetic measurements by flow cytometry; assay type: binding, human; conditions: for rate constant K: 10 μM, 4° C., 0-60 min, first order fit
# Description: The binding kinetics for AKP-monomer and AKP-multimer peptide was further evaluated on the target cells in the presence of 10 μM peptide concentration. The target cells (5×10^5) were detached and blocked as mentioned earlier and incubated with both monomer and multimer peptides at 4° C. over time from 0-60 min. After completing the incubation for each time course, the samples were prepared for flow cytometry, as mentioned above. The kinetics of peptide binding with the cell surface was determined by measuring the shift in the intensity of FITC-channel as a function of time. The resulting data were converted to median values as a function of time, and the rate constant was calculated using first order rate kinetics Y=a−b*exp^(−kx); where a=maximum value, b=difference in intensity (I−I0), and K=rate constant. Curve fits were performed using Origin 6.1 data analysis software.
# [6] = test system: CCD-841Con cells; test: Flow cytometry of FITC-labeled AKP peptides; assay type: cell-based, human; conditions: 10 μM, 60 min, 4° C.
# From the text: (§2) Peptides labeled with 5-FITC were used for the validation assays of cell binding. Preferential binding of the multimer peptide, monomer peptide, and trilysine to different human colorectal cancer (SW480, and HT29) and control cells (CCD841-Con) was validated on flow cytometry. A total of 5×10^5 cells were used with each probe. The confluent cells were detached using enzyme free cell dissociation buffer (Invitrogen, Carlsbad, Calif.) or trypsin with 0.25% EDTA (Mediatech Inc, Manassa, Va.) and immersed in blocking buffer, PBS with 1% bovine serum albumin (BSA), for 30 min at 4° C. with continuous agitation. After blocking, cells were washed with 1×PBS and spun down for 5 min at 1000 rpm. Then cells were incubated with the 5-FITC labeled peptides and trilysine (10 μM) for 60 min at 4° C. with continuous agitation. The cells were then washed 3× with cold PBST followed by immediate fixation for 10 min with 4% paraformaldehyde. The cells were washed again (1×) with PBS and resuspended in 1 mL of PBS. Flow cytometry was performed using FACSDiVa (BD® LSRII, BD Biosciences, San Jose, Calif.) and analyzed using Flowjo analysis program (Tree Star Inc, Ashland, Oreg.). The gain was kept constant for all experiments.
# [7] = test system: HT29 cells; test: Flow cytometry of FITC-labeled AKP peptides; assay type: cell-based, human
# From the text: as §2
# [8] = test system: SW480 cells; test: Flow cytometry of FITC-labeled AKP peptides; assay type: cell-based, human; conditions: 10 μM, 60 min, 4° C.
# From the text: as §2
# [9] = test system: HT29 cells; test: Measurement of binding affinity by flow cytometry; design: species or system human; conditions: FITC-labeled, 0 to 10 μM, 4° C., 1 hr
# Description: (§3) The binding affinity of multimer and monomer peptide was measured by varying the concentration of the 5-FITC-labeled peptides and trilysine incubated with the target cells (1×10^5) until saturation of fluorscence intensity was achieved. The FITC-labeled peptide was serially diluted in PBS at concentrations that varied from 0 to 10 μM and incubated with the target cells at 4° C. for 1 hr. The unbound peptide was rinsed off the cells by washing 3× with cold PBS/0.2% Tween-20 solution. The cells were fixed with 4% PFA, as mentioned above, washed 1× with PBS, and resuspended in 1 mL of PBS. Cells were transferred to a 5 mL tube and subjected to flow-cytometric analysis. The median fluorescence intensity from each concentration of peptides was used to calculate the affinity constant. The equilibrium dissociation constants (Kd=1/Ka) of the peptide-cell interaction were obtained by fitting the data to the non-linear equation I[X]=(I0+ImaxKa[X])/(I0+Ka[X]). I0 and Imax are the initial and maximum fluorescence intensities, corresponding to no peptide and at saturation, respectively, and [X] represents the concentration of the bound peptide. Origin 6.1 data analysis software (Origin Lab Corp, Northampton, Mass.) was used to perform a non-linear least square fit of the data.
# [10] = test system: SW480 cell line; test: Measurement of binding affinity by flow cytometry; design: species or system human; conditions: FITC-labeled, 0 to 10 μM, 4° C., 1 hr
# Description: as §3
# [11] = test system: colonic adenomas; test: In vivo small animal fluorescence endoscopy with FITC-labeled peptides; design: species or system CPC;Apc mice; conditions: topical, 5 min incubation, mean±SD
# Description: Prior to peptide administration, the colon was prepped using a tap water lavage. Using a small animal endoscope (Karl Storz Veterinary Endoscopy, Goleta, Calif.) with an instrument channel for performing biopsy, polyps suitable for peptide administration were located and the colon was rinsed with water until all mucous was removed. FITC-labeled Peptide 1 and Control peptide 1 were delivered in 1×PBS through the instrument channel. The peptides were allowed to incubate for 5 minutes after which the colon was cleansed 3× with a tap water to remove the unbound peptide. […] Fluorescence excitation produced with a 450-475 nm passband filter that can be manually switched to the optical path of a 175 W Nova Xenon light source was delivered to the endoscope via a 3 mm diameter fluid light cable (250 cm length). Fluorescence images were collected with a 510 nm long-pass barrier filter to block the excitation light and detected with a 3-chip color camera with an integrated parfocal zoom lens. Real time video was recorded via firewire connected to a personal computer. Polyps in CPC;Apc mice developing distal colonic adenomas (Peptide 1, n=6 mice, n=18 polyps; Control peptide 1, n=4 mice, n=7 polyps) in addition to Cre recombinase negative littermate controls (Peptide 1, n=2 mice) and Hyperplastic Kras mice (Peptide 1, n=3 mice) were imaged using both white light and fluorescence endoscopy. […]
# [12] = test system: dysplastic crypts of excised polyps; test: Confocal fluorescence imaging of ex vivo binding; design: species or system CPC;Apc mice; conditions: ex vivo incubated polyps
# Description: Preferential binding of the Peptide 1 compared to the Control peptide 1 on the adenomatous polyps was again confirmed with confocal microscopy. After peptide incubation, excised polyps were incubated ex vivo in 1 μg/mL Hoechst dye for 5 min to stain living nuclei, rinsed 3× with 1×PBS and imaged on an Olympus Confocal Microscope (Olympus, Tokyo, Japan).
# [13] = test system: isolated colonic epithelial cells from adenomas; test: Flow cytometry of FITC-conjugated phage clones; assay type: cell-based, CPC;Apc mice
# From the text: Specific binding of the candidate peptides to primary dysplastic colonic epithelial cells were validated on flow cytometry ex vivo and with small animal endoscopy in vivo using FITC-labeled peptides using a non-scanning white light endoscope.
# Phages that bound to colonic adenomas approximately 10 times greater in number than to normal appearing colonic mucosa were chosen. As a result, 42 individual phage clones were sequenced from the third round of biopanning, and were individually amplified and conjugated to 5′-FITC. Binding to isolated colonic epithelial cells from adenomas for each phage clone was analyzed using flow cytometry. A common 7-mer phage that expresses the sequence HAIYPRH (SEQ ID NO: 29) is a known contaminant, and was run (labeled # in Supplementary FIG. 1B) to ensure the validity of the assay. […] Six phage clones with a T/B ratio (target to wild-type phage)>1.9 were identified as ALTPTPP (SEQ ID NO: 30), NLVNLLP (SEQ ID NO: 31), ANYPREP (SEQ ID NO: 32), ATTVPAS (SEQ ID NO: 33), LTTHYKL (SEQ ID NO: 26), and AKPGYLS (SEQ ID NO: 25). The KCCFPAQ (SEQ ID NO: 2) peptide had been previously found to bind to human HT29 cells.
# [14] = cell line not specified (SW480, HT29, CCD-841Con tested)
substance,measurement,setting,value
"AKP-multimer: tetrameric version of AKPGYLS anchored on a trilysine core; Cy5.5 label in vivo, FITC label in vitro (also: tetramer on trilysine core, Cy5.5 or FITC label)",binding to plasma membrane,[1],not to CCD-841Con cells
same,binding to plasma membrane,"[2]; HT29, FITC-labeled, 10 μM, 4° C., 1 hr",bound specifically to the plasma membrane
same,binding to plasma membrane,[3],bound specifically to the plasma membrane
same,NIR fluorescence signal from adenomas,[4]; Cy5.5-labeled,significantly amplified
same,average fluorescence intensity from colonic adenomas relative to AKP-monomer and trilysine control,[4]; Cy5.5-labeled,~1.8 fold
same,T/B ratio,[4]; Cy5.5-labeled,3.84±0.26
same,detection of lesions by size,[4],detected all lesions regardless of size
same,binding speed relative to AKP-monomer,[5],~2 fold
same,rate constant K,[5],0.1136 min⁻¹
same,rate constant K,[5]; listed as multimer,0.1136 min⁻¹
same,counts relative to unstained cells,[6],2.2 times
same,counts relative to unstained cells,"[7]; HT29, FITC-labeled, 10 μM, 60 min, 4° C.",26.1 times
same,counts relative to unstained cells,[8],20.2 times
same,Kd,[9],6.4 nM
same,Kd,[10],101 nM
"AKPGYLSGGGSK-NH2 [AKP-monomer, Cy5.5 label in vivo, FITC label in vitro]",cell staining on microscopy,[2]; [14],lower fluorescence intensity at the cell surface
same,NIR fluorescence signal from adenomas,[4]; Cy5.5-labeled,faint fluorescence intensity
same,T/B ratio,[4]; Cy5.5-labeled,2.21±0.13
same,detection of lesions by size,[4],did not visualize lesions smaller than ˜1 mm
same,rate constant K,[5],0.0663 min⁻¹
same,extent of cell binding on flow cytometry,[7]; [14],bound to a lower extent than the AKP-multimer
same,Kd,[9],310 nM
same,Kd,[10],1210 nM
"GGGAGGGA [FITC-Control peptide 1, control peptide containing Gly and Ala, FITC-labeled]","T/B (polyp/normal colon, target to background ratio)",[11],1.14±0.15
same,"binding to dysplastic crypts, confocal microscopy",[12],Minimal to no binding
HAIYPRH,T/B ratio (target to wild-type phage),[13],1.10±0.08
